In ChEMBL document CHEMBL5291721, “A preclinical secondary pharmacology resource illuminates target-adverse drug reaction associations of marketed drugs” (Nat Commun, 2023):

What was measured:
[1] = target: T1, 5-hydroxytryptamine receptor 1A (Homo sapiens, UniProt P08908)
T1 sequence (P08908 whole entry): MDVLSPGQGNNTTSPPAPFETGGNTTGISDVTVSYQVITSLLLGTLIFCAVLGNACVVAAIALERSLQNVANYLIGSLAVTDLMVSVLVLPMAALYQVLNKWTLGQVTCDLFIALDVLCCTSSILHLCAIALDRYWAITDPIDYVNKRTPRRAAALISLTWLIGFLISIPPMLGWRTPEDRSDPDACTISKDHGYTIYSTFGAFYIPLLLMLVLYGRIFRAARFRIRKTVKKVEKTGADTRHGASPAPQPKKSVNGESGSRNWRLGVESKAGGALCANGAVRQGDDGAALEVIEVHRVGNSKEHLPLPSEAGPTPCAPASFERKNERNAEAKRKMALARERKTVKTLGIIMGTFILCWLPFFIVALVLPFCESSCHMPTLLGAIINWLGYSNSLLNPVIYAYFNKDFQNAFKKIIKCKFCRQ

[2] = target: T2, Gamma-aminobutyric acid receptor subunit alpha-1/alpha-2/beta-2/gamma-2 (Homo sapiens, UniProt P14867+P18507+P47869+P47870); assay type: functional, cell-based
T2 sequence (P14867 whole entry): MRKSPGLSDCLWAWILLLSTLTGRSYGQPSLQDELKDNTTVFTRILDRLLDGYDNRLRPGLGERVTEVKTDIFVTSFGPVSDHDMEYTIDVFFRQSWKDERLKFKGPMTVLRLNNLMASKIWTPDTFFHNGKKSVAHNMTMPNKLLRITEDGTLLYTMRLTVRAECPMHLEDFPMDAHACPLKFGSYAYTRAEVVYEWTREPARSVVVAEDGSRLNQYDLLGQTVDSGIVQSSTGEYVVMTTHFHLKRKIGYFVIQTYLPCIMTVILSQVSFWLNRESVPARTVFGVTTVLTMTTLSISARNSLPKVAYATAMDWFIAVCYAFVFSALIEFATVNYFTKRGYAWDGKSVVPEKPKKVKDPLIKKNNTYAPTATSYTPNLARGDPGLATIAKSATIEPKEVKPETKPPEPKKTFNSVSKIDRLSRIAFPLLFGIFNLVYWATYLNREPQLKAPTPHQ
T2 sequence (P47870 whole entry): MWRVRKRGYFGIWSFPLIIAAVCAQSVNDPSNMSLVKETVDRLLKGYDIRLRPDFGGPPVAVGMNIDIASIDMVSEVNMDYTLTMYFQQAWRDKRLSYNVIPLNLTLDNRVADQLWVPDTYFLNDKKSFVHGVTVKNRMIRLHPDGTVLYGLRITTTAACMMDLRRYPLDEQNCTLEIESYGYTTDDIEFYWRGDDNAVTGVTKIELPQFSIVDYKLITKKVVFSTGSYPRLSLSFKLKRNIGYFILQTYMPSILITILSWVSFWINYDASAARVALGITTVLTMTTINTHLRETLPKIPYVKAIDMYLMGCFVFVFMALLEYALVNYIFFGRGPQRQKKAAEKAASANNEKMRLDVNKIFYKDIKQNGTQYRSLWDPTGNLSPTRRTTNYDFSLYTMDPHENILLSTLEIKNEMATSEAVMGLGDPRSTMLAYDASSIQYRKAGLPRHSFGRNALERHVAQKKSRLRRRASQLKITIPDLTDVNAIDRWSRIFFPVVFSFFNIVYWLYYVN
T2 sequence (P18507 whole entry): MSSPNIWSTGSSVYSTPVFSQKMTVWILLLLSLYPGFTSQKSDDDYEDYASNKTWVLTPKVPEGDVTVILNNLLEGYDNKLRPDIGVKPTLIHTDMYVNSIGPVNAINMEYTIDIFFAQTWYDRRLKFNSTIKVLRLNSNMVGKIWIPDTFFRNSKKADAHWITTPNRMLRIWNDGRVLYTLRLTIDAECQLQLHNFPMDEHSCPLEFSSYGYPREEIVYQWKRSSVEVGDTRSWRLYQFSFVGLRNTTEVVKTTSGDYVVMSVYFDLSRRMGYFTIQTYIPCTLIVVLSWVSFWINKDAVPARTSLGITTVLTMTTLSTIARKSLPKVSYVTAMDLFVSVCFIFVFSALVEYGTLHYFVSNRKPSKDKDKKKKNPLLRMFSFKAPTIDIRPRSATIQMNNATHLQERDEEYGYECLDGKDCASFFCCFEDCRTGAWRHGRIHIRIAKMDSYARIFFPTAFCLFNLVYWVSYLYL
T2 sequence (P47869 whole entry): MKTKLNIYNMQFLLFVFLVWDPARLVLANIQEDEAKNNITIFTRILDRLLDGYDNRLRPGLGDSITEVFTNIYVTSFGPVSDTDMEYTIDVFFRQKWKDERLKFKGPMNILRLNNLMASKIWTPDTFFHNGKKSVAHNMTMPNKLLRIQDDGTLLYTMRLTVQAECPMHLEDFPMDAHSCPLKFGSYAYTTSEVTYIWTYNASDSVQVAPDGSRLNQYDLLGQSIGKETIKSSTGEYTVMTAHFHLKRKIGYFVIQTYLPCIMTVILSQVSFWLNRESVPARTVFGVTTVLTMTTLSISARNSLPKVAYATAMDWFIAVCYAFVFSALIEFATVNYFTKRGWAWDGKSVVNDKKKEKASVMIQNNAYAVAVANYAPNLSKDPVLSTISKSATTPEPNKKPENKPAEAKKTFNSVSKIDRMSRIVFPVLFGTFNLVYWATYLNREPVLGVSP

[3] = target: T2, Gamma-aminobutyric acid receptor subunit alpha-1/alpha-2/beta-2/gamma-2; assay type: functional, cell-based; remark: listed apart in the source
Glucocorticoid receptor = target: T3, Glucocorticoid receptor (Homo sapiens, UniProt P04150)
T3 sequence (P04150 whole entry): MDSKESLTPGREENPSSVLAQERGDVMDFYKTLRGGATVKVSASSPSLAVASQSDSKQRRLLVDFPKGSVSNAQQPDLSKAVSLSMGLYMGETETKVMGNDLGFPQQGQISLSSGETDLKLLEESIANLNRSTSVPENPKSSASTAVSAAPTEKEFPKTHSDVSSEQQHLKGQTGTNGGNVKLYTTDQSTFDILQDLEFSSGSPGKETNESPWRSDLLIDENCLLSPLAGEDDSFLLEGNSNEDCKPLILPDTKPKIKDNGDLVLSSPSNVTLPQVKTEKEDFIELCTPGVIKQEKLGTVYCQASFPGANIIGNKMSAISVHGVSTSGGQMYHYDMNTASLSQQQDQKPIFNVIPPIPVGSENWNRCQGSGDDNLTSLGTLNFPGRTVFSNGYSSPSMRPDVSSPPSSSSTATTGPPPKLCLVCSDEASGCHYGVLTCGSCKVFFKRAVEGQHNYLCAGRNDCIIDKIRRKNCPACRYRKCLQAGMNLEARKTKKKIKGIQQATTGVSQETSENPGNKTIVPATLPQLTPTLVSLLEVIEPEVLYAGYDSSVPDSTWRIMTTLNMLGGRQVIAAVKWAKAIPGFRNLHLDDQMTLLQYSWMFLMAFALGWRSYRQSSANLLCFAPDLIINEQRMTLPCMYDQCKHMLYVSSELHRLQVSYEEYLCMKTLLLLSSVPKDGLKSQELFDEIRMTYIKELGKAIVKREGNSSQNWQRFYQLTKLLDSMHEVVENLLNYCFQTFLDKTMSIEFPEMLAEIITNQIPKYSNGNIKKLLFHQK

D(1A) dopamine receptor = D(1A) dopamine receptor (Homo sapiens, UniProt P21728)
Chain of D(1A) dopamine receptor (P21728 whole entry): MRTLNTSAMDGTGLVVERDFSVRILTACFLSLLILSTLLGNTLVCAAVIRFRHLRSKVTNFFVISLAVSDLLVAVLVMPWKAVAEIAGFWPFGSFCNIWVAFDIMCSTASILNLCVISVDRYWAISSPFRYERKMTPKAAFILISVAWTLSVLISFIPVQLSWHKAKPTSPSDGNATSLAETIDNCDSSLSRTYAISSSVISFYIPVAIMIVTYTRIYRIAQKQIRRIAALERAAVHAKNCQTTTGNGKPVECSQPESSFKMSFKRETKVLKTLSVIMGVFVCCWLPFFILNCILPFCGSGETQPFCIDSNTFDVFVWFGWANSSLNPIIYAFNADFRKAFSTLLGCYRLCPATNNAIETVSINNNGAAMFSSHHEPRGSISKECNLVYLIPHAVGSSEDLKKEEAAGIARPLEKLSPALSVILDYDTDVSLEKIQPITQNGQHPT

[4] = target: T4, Corticotropin-releasing factor receptor 1 (Homo sapiens, UniProt P34998)
T4 sequence (P34998 whole entry): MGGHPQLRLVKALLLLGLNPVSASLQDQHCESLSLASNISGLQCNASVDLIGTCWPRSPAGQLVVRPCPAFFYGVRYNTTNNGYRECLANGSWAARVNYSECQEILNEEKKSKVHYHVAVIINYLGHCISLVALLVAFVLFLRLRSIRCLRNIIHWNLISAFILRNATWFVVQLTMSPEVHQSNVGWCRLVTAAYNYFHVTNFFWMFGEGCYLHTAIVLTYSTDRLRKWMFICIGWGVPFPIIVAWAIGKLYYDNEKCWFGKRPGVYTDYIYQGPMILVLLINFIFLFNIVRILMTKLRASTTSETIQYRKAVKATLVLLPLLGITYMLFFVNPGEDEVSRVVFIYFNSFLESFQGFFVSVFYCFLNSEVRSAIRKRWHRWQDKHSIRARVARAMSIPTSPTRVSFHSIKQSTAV

[5] = target: T5, Gastric inhibitory polypeptide receptor (Homo sapiens, UniProt P48546)
T5 sequence (P48546 whole entry): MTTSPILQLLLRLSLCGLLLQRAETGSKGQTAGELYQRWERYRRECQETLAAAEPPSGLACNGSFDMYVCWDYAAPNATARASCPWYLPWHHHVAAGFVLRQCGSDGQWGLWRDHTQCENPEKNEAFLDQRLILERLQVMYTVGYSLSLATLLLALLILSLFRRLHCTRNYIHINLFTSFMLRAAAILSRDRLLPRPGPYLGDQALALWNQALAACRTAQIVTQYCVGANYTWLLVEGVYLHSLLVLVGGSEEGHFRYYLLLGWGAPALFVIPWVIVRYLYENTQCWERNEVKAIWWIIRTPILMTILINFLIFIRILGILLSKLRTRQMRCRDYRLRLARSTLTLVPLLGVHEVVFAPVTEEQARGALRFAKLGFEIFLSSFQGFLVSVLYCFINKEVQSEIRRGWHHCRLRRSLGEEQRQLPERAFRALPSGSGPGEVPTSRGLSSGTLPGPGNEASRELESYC

[6] = target: T6, Neuropeptide Y receptor type 2 (Homo sapiens, UniProt P49146)
T6 sequence (P49146 whole entry): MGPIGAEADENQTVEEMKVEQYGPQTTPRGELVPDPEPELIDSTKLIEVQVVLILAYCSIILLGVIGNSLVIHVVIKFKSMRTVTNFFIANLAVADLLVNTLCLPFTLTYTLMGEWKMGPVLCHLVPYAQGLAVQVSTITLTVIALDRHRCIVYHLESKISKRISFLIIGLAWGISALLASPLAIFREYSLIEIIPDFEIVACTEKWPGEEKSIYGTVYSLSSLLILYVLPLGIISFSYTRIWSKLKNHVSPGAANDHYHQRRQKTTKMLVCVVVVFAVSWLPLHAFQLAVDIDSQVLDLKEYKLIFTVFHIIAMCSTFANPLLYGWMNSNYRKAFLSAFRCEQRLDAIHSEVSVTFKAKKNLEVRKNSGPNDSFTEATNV

[7] = target: Beta-3 adrenergic receptor (Homo sapiens, UniProt P13945)
Chain of Beta-3 adrenergic receptor (P13945 whole entry): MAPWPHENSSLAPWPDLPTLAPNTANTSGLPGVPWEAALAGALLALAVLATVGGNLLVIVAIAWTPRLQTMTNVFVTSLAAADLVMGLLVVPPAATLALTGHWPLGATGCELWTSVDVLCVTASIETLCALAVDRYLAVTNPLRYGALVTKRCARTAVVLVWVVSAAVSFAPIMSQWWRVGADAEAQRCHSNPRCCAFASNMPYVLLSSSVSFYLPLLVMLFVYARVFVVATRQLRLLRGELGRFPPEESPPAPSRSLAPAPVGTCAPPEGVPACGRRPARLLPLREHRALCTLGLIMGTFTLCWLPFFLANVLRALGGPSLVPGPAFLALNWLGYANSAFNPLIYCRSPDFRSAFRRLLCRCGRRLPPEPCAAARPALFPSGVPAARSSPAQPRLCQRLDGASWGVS
Note: assay procedure not described here.

| Compound | AC50 [1] [µM] | AC50 [2] [µM] | AC50 [3] [µM] | AC50 (Glucocorticoid receptor) [µM] | also measured |
| --- | --- | --- | --- | --- | --- |
| O=C(O)c1cccc(-c2noc(-c3ccccc3F)n2)c1 | > 10 |  |  |  |  |
| CO/N=C(\C(=O)N[C@@H]1C(=O)N2C(C(=O)OCOC(=O)C(C)(C)C)=C(C)CS[C@H]12)c1csc(N)n1 |  | > 30 | > 30 |  |  |
| NS(=O)(=O)c1cc(-c2nnn[nH]2)c(NCc2cccs2)cc1Cl [AZOSEMIDE] |  |  |  | > 30 |  |
| O=C(Cn1ccnc1[N+](=O)[O-])NCc1ccccc1 [BENZNIDAZOLE] |  |  |  | > 30 |  |
| CCCC(=O)N1CCCN(c2nc(N)c3cc(OC)c(OC)cc3n2)CC1 [BUNAZOSIN] |  | > 30 | > 30 |  |  |
| C[N+](C)(C)CCOC(N)=O [CARBAMOYLCHOLINE] | > 10 |  | > 30 |  |  |
| COCC1=C(C(=O)OC(C)OC(=O)OC(C)C)N2C(=O)[C@@H](NC(=O)/C(=N\OC)c3csc(N)n3)[C@H]2SC1 (stereo not given in full) [CEFPODOXIME PROXETIL] |  | > 30 | > 30 |  |  |
| CC(C)(N)Cc1ccc(Cl)cc1 [CHLORPHENTERMINE] | > 10 |  |  |  | AC50 (D(1A) dopamine receptor): > 10 µM; AC50 [4]: > 30 µM; AC50 [5]: > 30 µM; AC50 [6]: > 30 µM; AC50 [7]: > 30 µM |
| NS(=O)(=O)c1cc2c(cc1Cl)NC(CC1CCCC1)NS2(=O)=O (stereo not given) [CYCLOPENTHIAZIDE] |  | > 30 | > 30 |  |  |
| CN(C)[C@@H]1C(O)=C(C(N)=O)C(=O)[C@@]2(O)C(O)=C3C(=O)c4c(O)ccc(Cl)c4[C@@H](O)[C@H]3C[C@@H]12 [DEMECLOCYCLINE] |  |  |  | > 30 |  |
| NS(=O)(=O)c1cc(Cl)c(Cl)c(S(N)(=O)=O)c1 [DICHLORPHENAMIDE] |  |  |  | > 10 |  |
| O=C(Nc1ccccc1)OCC(CN1CCCCC1)OC(=O)Nc1ccccc1 (stereo not given) [DIPERODON] | > 10 |  |  | > 30 | AC50 (D(1A) dopamine receptor): > 10 µM; AC50 [4]: > 30 µM; AC50 [5]: > 30 µM; AC50 [6]: > 30 µM; AC50 [7]: > 30 µM |
| N/N=c1/cc2c(n[nH]1)CCN(C(=O)c1ccccc1)C2 [ENDRALAZINE] |  | > 30 | > 30 |  |  |
